Measured values: patent US7375092B2, “Lunasin peptides” (Regents of the University of California, priority 1997, dated 2008)

B1: large subunit peptide: 77 amino acid (8 kDa) large subunit (alisin) of Gm2S-1, residues 82-158 of SEQ ID NO:2 (protein)
chain: EGKDEDEEEEGHMQKCCTEMSELRSPKCQCKALQKIMENQSEELEEKQKKKMEKELINLATMCRFGPMIQCDLSSDD

Assays:
mammalian cells = assay: Mitotic disruption by peptide panel in mammalian studies; assay type: cell-based; conditions: deletion mutant and synthetic fusion peptides
Text: Similar mitotic disruption is observed using a large panel of lunasin and alisin deletion mutant peptides (lunasin-del-n and alisin-del-n) and lunasin/alisin-like synthetic peptides (Gm2S-1-syn-n). Exemplary active lunasin-del peptides in these mammalian studies include (again using N→C nomenclature convention): • lunasin-del-1: MRG—residues 57-64 of SEQ ID NO:2 fusion protein • lunasin-del-2: α-tubulin—residues 54-64 of SEQ ID NO:2 fusion protein • lunasin-del-3: β-tubulin—residues 48-63 of SEQ ID NO:2 fusion protein • lunasin-del-4: MAP2 —residues 26-64 of SEQ ID NO:2 fusion protein • lunasin-del-5: Mapmodulin—residues 57-64 of SEQ ID NO:2 fusion protein • lunasin-del-6: GFP—residues 54-64 of SEQ ID NO:2 fusion protein • lunasin-del-7: MAP4—residues 44-63 of SEQ ID NO:2 fusion protein • lunasin-del-8: FLAGG—residues 30-64 of SEQ ID NO:2 fusion protein • lunasin-del-9: CYCLIN A—residues 57-64 of SEQ ID NO:2 fusion protein • lunasin-del-10: CYCLIN B1—residues 54-64 of SEQ ID NO:2 fusion protein • lunasin-del-11: CYCLIN B2—residues 40-63 of SEQ ID NO:2 fusion protein • lunasin-del-12: CYCLIN B3—residues 34-64 of SEQ ID NO:2 fusion protein • lunasin-del-13: SH2—octa-aspartate fusion protein • lunasin-del-14: SH3—octa-aspartate fusion protein • lunasin-del-15: SEQ ID NO:2, residues 48-55—MRG-octa-aspartate fusion protein • lunasin-del-16: SEQ ID NO:2, residues 48-55—SEQ ID NO:2, residues 48-55—octa-aspartate fusion protein • lunasin-del-17: MRG-tetrta-aspartate-tetra glutamate fusion protein • lunasin-del-18: SEQ ID NO:2, residues 48-55-octa-glutamate fusion protein • lunasin-del-19: SEQ ID NO:2, residues 1-21-MRG-deca-glutamate fusion protein • lunasin-del-20: SEQ ID NO:2, residues 48-55—SEQ ID NO:2, residues 48-55—tetra-aspartate-tetra glutamate fusion protein
Alternatively, the peptides are introduced indirectly by expression within the targeted cell. Such expression may be effected by transciently or by upregulation of a stably introduced peptide-encoding gene.

[1] = tested on: cotyledon and endosperm parynchematous cells; assay: Plant transformation: mitotic disruption in developing seeds; assay type: in vivo; conditions: deletion mutant and synthetic fusion peptides
Text: Cereal endosperm and legume cotyledon make up at least 85% of the seed weight and that seed size is genetically correlated to crop yield by at least 80%. […] To accomplish this, the 5′ regulatory regions of soybean conglycinin gene (a 170 bp DNA sequence element that is 200 nucleotides upstream of the transcription start site conferring cotyledon-specific expression (Chen et al., 1988, EMBO J 7:297) and rice glutelin gene (a 121 bp DNA sequence element that is 437/317 nucleotide upstream of the transcription start site conferring endosperm-specific expression (Yoshihara and Takaiwa, 1996, Plant Cell Physiol 37:107) are inserted into the −90 position of the CaMV 35S promoter which are then fused to the DNA fragments encoding the in-frame translation of lunasin and lunasin-del peptides. The DNA constructs are ligated to the binary vector, pKYLX71 (Lloyd et al., 1992, Science 258:1773) for Agrobacterium transformation and to pGEM-3Zf(+) vector (Promega) for biolistic transformation (Cho et al., 1995, Plant Mol Biol Rept 13:255). Agrobacterium-mediated transformation using the cotyledon-specific DNA constructs is utilized for most dicots, i.e. legumes (soybean, peas, peanuts and kidney beans), Arabidopsis thaliana and tobacco. For monocots like the cereal grain crops, wheat, rice, barley, rye and corn, the biolistic method of transformation is utilized using the endosperm-specific DNA constructs. The expression of the lunasin peptide in the developing seeds of all these plant species are monitored by immunolocalization using antibodies derived specifically to the carboxyl end epitope of the lunasin peptide.

DH5 E. coli cells = assay: Expression of Gm2S-1 peptides in bacteria: disruption of bacterial cell division (filamentation); assay type: cell-based; conditions: basal expression from pFLAG-1 in DH5 E. coli cells
Text: We sought to produce purified Gm2S-1-derived peptides, including lunasin and alisin peptides, for allergenicity tests using bacterial expression vectors. Initially, PCR amplified fragments that encode lunasin and a lunasin deletion (lunasin-del) mutant (with the 9 aspartic acid deleted from the carboxyl end) were first cloned into pGEM-T (Promega) PCR cloning vector, then cut with EcoR1 and HindIII to release lunasin and lunasin-del gene fragment which were then subcloned into pFLAG-1 bacterial expression vector (Kodak/IBI). Lunasin and lunasin-del pFLAG constructs were used to transform competent DH5 E. coli cells using standard heat shock protocol.
Similar mitotic disruption is observed using a large panel of lunasin and alisin deletion mutant peptides (lunasin-del-n and alisin-del-n) and lunasin/alisin-like synthetic peptides (Gm2S-1-syn-n). […]

Molecule	mitotic disruption, active peptides in mammalian studies (mammalian cells)	mitotic disruption, active peptides in plant transformation studies [1]	formation of elongated and non-septated bacterial filaments (DH5 E. coli cells)
lunasin-del-18: SEQ ID NO:2, residues 48-55—octa-glutamate fusion protein (MEKIQGRG; C-terminal octa-glutamate)	active	active	
lunasin-del-15: SEQ ID NO:2, residues 48-55—MRG-octa-aspartate fusion protein (MEKIQGRG; C-terminal MRG and octa-aspartate)	active	active	
lunasin-del-19: SEQ ID NO:2, residues 1-21—MRG-deca-glutamate fusion protein (MTKFTILLISLLFCIAHTCSA; C-terminal MRG and deca-glutamate)	active	active	
B1			not detected
